# Test results: the supplement of paper PMC10307832
# Key:
# Assay in all cases: relative viability (nuclei count vs DMSO), 5 days (fraction); higher = more cells survive
# [1] = system: COR-L23
# Outline: (§1)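 Five library-drug doses in √10 steps were combined with a fixed anchor-drug dose, or a single drug was given alone, by pin tool to lung cancer cell lines in 1536-well plates the day after seeding. Nuclei were stained and counted after 5 days. Relative viability is the nuclei count in treated wells over that in vehicle wells, taken as the median of duplicate plates.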
# [2] = system: NCI-H1437
# Outline: as §1
# [3] = system: A549
# Outline: as §1
# [4] = system: ChaGo-K-1
# Outline: as §1
# [5] = system: ABC-1
# Outline: as §1
# [6] = system: SK-MES-1
# Outline: as §1
# [7] = system: SW 1573
# Outline: as §1
# [8] = system: NCI-H1648
# Outline: as §1
# [9] = system: NCI-H1651
# Outline: as §1
smiles,measurement,setting,value
Nc1ccn([C@@H]2O[C@H](CO)[C@@H](O)[C@@H]2O)c(=O)n1 [Cytarabine] + Nc1ncn([C@H]2C[C@H](O)[C@@H](CO)O2)c(=O)n1 [Decitabine] (partner 2 µM),relative viability,[1]; first compound 0.005 µM,0.43
same,relative viability,[1]; first compound 0.01581 µM,0.377
same,relative viability,[1]; first compound 0.05 µM,0.341
same,relative viability,[1]; first compound 0.1581 µM,0.205
same,relative viability,[1]; first compound 0.5 µM,0.156
same,relative viability,[2]; first compound 0.005 µM,0.498
same,relative viability,[2]; first compound 0.01581 µM,0.442
same,relative viability,[2]; first compound 0.05 µM,0.48
same,relative viability,[2]; first compound 0.1581 µM,0.338
same,relative viability,[2]; first compound 0.5 µM,0.268
same,relative viability,[3]; first compound 0.005 µM,0.215
same,relative viability,[3]; first compound 0.01581 µM,0.115
same,relative viability,[3]; first compound 0.05 µM,0.161
same,relative viability,[3]; first compound 0.1581 µM,0.0447
same,relative viability,[3]; first compound 0.5 µM,0.0287
same,relative viability,[4]; first compound 0.005 µM,0.475
same,relative viability,[4]; first compound 0.01581 µM,0.413
same,relative viability,[4]; first compound 0.05 µM,0.339
same,relative viability,[4]; first compound 0.1581 µM,0.252
same,relative viability,[4]; first compound 0.5 µM,0.225
same,relative viability,[5]; first compound 0.005 µM,1.13
same,relative viability,[5]; first compound 0.01581 µM,1.02
same,relative viability,[5]; first compound 0.05 µM,0.925
same,relative viability,[5]; first compound 0.1581 µM,0.786
same,relative viability,[5]; first compound 0.5 µM,0.611
same,relative viability,[6]; first compound 0.005 µM,0.29
same,relative viability,[6]; first compound 0.01581 µM,0.211
same,relative viability,[6]; first compound 0.05 µM,0.205
same,relative viability,[6]; first compound 0.1581 µM,0.183
same,relative viability,[6]; first compound 0.5 µM,0.155
same,relative viability,[7]; first compound 0.005 µM,0.347
same,relative viability,[7]; first compound 0.01581 µM,0.184
same,relative viability,[7]; first compound 0.05 µM,0.247
same,relative viability,[7]; first compound 0.1581 µM,0.121
same,relative viability,[7]; first compound 0.5 µM,0.083
same,relative viability,[8]; first compound 0.005 µM,0.479
same,relative viability,[8]; first compound 0.01581 µM,0.526
same,relative viability,[8]; first compound 0.05 µM,0.502
same,relative viability,[8]; first compound 0.1581 µM,0.35
same,relative viability,[8]; first compound 0.5 µM,0.362
same,relative viability,[9]; first compound 0.005 µM,0.646
same,relative viability,[9]; first compound 0.01581 µM,0.493
same,relative viability,[9]; first compound 0.05 µM,0.167
same,relative viability,[9]; first compound 0.1581 µM,0.281
same,relative viability,[9]; first compound 0.5 µM,0.213
CC(=O)O[C@@]12CO[C@@H]1C[C@H](O)[C@@]1(C)C(=O)[C@H](O)C3=C(C)[C@@H](OC(=O)[C@H](O)[C@@H](NC(=O)OC(C)(C)C)c4ccccc4)C[C@@](O)([C@@H](OC(=O)c4ccccc4)[C@H]21)C3(C)C [Docetaxel] + Nc1nc2[nH]cc(CCc3ccc(C(=O)N[C@@H](CCC(=O)O)C(=O)O)cc3)c2c(=O)[nH]1 [Pemetrexed] (partner 0.2 µM),relative viability,[1]; first compound 0.0002 µM,0.189
same,relative viability,[1]; first compound 0.000632 µM,0.184
same,relative viability,[1]; first compound 0.002 µM,0.186
same,relative viability,[1]; first compound 0.006325 µM,0.167
same,relative viability,[2]; first compound 0.0002 µM,0.3
same,relative viability,[2]; first compound 0.000632 µM,0.361
same,relative viability,[2]; first compound 0.002 µM,0.32
same,relative viability,[2]; first compound 0.006325 µM,0.288
same,relative viability,[2]; first compound 0.02 µM,0.213
same,relative viability,[4]; first compound 0.0002 µM,0.269
same,relative viability,[4]; first compound 0.000632 µM,0.269
same,relative viability,[4]; first compound 0.002 µM,0.276
same,relative viability,[4]; first compound 0.006325 µM,0.268
same,relative viability,[4]; first compound 0.02 µM,0.181
same,relative viability,[6]; first compound 0.0002 µM,0.971
same,relative viability,[6]; first compound 0.000632 µM,0.907
same,relative viability,[6]; first compound 0.002 µM,0.499
same,relative viability,[6]; first compound 0.006325 µM,0.341
same,relative viability,[6]; first compound 0.02 µM,0.197
same,relative viability,[7]; first compound 0.0002 µM,0.557
same,relative viability,[7]; first compound 0.000632 µM,0.478
same,relative viability,[7]; first compound 0.002 µM,0.236
same,relative viability,[7]; first compound 0.006325 µM,0.146
same,relative viability,[7]; first compound 0.02 µM,0.138
same,relative viability,[8]; first compound 0.0002 µM,0.73
same,relative viability,[8]; first compound 0.000632 µM,0.758
same,relative viability,[8]; first compound 0.002 µM,0.386
same,relative viability,[8]; first compound 0.006325 µM,0.186
same,relative viability,[8]; first compound 0.02 µM,0.231
same,relative viability,[9]; first compound 0.0002 µM,0.443
same,relative viability,[9]; first compound 0.000632 µM,0.593
same,relative viability,[9]; first compound 0.002 µM,0.447
same,relative viability,[9]; first compound 0.006325 µM,0.175
Cc1sc2c(c1C)C(c1ccc(Cl)cc1)=N[C@@H](CC(=O)OC(C)(C)C)c1nnc(C)n1-2 [JQ1] + CC(=O)Nc1cccc(-n2c(=O)n(C3CC3)c(=O)c3c(Nc4ccc(I)cc4F)n(C)c(=O)c(C)c32)c1 [Trametinib] (partner 0.02 µM),relative viability,[1]; first compound 0.04 µM,0.562
same,relative viability,[1]; first compound 0.1265 µM,0.497
same,relative viability,[1]; first compound 0.4 µM,0.55
same,relative viability,[1]; first compound 1.265 µM,0.342
same,relative viability,[1]; first compound 4 µM,0.29
same,relative viability,[2]; first compound 0.04 µM,0.443
same,relative viability,[2]; first compound 0.1265 µM,0.519
same,relative viability,[2]; first compound 0.4 µM,0.344
same,relative viability,[2]; first compound 1.265 µM,0.35
same,relative viability,[2]; first compound 4 µM,0.26
same,relative viability,[4]; first compound 0.04 µM,0.943
same,relative viability,[4]; first compound 0.1265 µM,0.928
same,relative viability,[4]; first compound 0.4 µM,0.797
same,relative viability,[4]; first compound 1.265 µM,0.641
same,relative viability,[4]; first compound 4 µM,0.483
same,relative viability,[6]; first compound 0.04 µM,0.446
same,relative viability,[6]; first compound 0.1265 µM,0.309
same,relative viability,[6]; first compound 0.4 µM,0.32
same,relative viability,[6]; first compound 1.265 µM,0.24
same,relative viability,[6]; first compound 4 µM,0.259
same,relative viability,[7]; first compound 0.04 µM,0.422
same,relative viability,[7]; first compound 0.1265 µM,0.357
same,relative viability,[7]; first compound 0.4 µM,0.277
same,relative viability,[7]; first compound 1.265 µM,0.189
same,relative viability,[7]; first compound 4 µM,0.187
same,relative viability,[8]; first compound 0.04 µM,0.432
same,relative viability,[8]; first compound 0.1265 µM,0.473
same,relative viability,[8]; first compound 0.4 µM,0.337
same,relative viability,[8]; first compound 1.265 µM,0.303
same,relative viability,[8]; first compound 4 µM,0.245
same,relative viability,[9]; first compound 0.04 µM,0.782
same,relative viability,[9]; first compound 0.1265 µM,0.742
same,relative viability,[9]; first compound 0.4 µM,0.603
same,relative viability,[9]; first compound 1.265 µM,0.496
same,relative viability,[9]; first compound 4 µM,0.437
